The values below come from patent publication US20170291882A1, “Solid Forms of Mirabegron” (Apotex Inc., priority 2014, published 2017).

Converted amounts (≈) assume the structure as drawn. Like-named read-outs stand apart in the source and are kept apart here.

Data set [1] is described as follows: Solubility testing of forms of Mirabegron (suspension stirred at room temperature, supernatant dried to constant weight). Type of data set: physicochemical. Here is the method:
Solubility testing was conducted by preparing a suspension of the subject form of Mirabegron in the indicated solvent and stirring the suspension for the indicated time period at room temperature. After this time, excess solid was removed by filtration and the volume of the supernatant was recorded. The supernatant was concentrated in vacuo and dried to constant weight to afford a solid. The solubility is shown as the weight of solid/volume of supernatant in mg/mL. The α-form and β-form of Mirabegron refer to the forms as characterized in CA 2 464 068 C.
Phosphate buffer was prepared by dissolving potassium dihydrogen phosphate (340 mg) and disodium hydrogen phosphate (353 mg) in deionized water (100 mL).

Data set [2] is described as follows: Hygroscopicity testing (desiccator with saturated ammonium sulphate solution, 25° C., 24 hours). Type of data set: physicochemical. As to conditions: 1 g, unstoppered vessel over saturated ammonium sulphate solution. As to the method:
The hygroscopicity testing was conducted by placing 1 g of form APO-I Mirabegron in an unstoppered weighing vessel in a desiccator containing a saturated ammonium sulphate solution. The desiccator was placed in an oven at 25° C. for 24 hours. After this time, the percentage increase in mass was 0.89%.

The conditions of data set [3]: cited from earlier work; for hygroscopicity (in words): as disclosed in CA 2 464 068 C.

One may read the solubility as the concentration that dissolves in the medium under given conditions. High values mean a readily soluble substance, low ones a poorly soluble substance. A word on the Solubility: it is the dissolved amount per volume that the medium holds. Low values mean a poorly soluble substance, high ones a readily soluble substance. For `Nc1nc(CC(=O)Nc2ccc(CCNC[C@H](O)c3ccccc3)cc2)cs1` [Form APO-I, Mirabegron], in data set [1] (0.1M HCl, simulated gastric fluid, thermodynamic from solid, 2 hours), the solubility at 2 h is 15 mg/mL (≈ 37.8 mM). Further, the Solubility in data set [1] (Distilled water, 2 hours, listed as APO-I) turned out to be 0.5 mg/mL (≈ 1.26 mM); in data set [1] (Ethanol (denatured), 0.5 hours, listed as APO-I) it was 62.8 mg/mL (≈ 158 mM); in data set [1] (Phosphate buffer (pH 6.8), 2 hours, listed as APO-I), 6.2 mg/mL (≈ 15.6 mM). For the same compound, the “percentage increase in mass” value in data set [2] is given as 0.89%.

With `Nc1nc(CC(=O)Nc2ccc(CCNC[C@H](O)c3ccccc3)cc2)cs1` [Form α, (R)-2-(2-aminothiazol-4-yl)-4′-[2-[(2-hydroxy-2-phenylethyl)amino]ethyl]acetanilide], the Solubility is given as 13.0 mg/mL (≈ 32.8 mM) in data set [1] (0.1M HCl, 2 hours); 0.2 mg/mL (≈ 0.504 mM) in data set [1] (Distilled water, 2 hours, listed as α); 21.3 mg/mL (≈ 53.7 mM) in data set [1] (Ethanol (denatured), 0.5 hours, listed as α); 2.5 mg/mL (≈ 6.3 mM) in data set [1] (Phosphate buffer (pH 6.8), 2 hours, listed as α). The “hygroscopicity (in words)” value in data set [3] (listed as α-form crystal) is “no hygroscopicity”.

In data set [1] (Ethanol (denatured), 0.5 hours, listed as β), `Nc1nc(CC(=O)Nc2ccc(CCNC[C@H](O)c3ccccc3)cc2)cs1` [Form β, (R)-2-(2-aminothiazol-4-yl)-4′-[2-[(2-hydroxy-2-phenylethyl)amino]ethyl]acetanilide] returned a Solubility of 27.2 mg/mL (≈ 68.6 mM). Moreover, the “hygroscopicity (in words)” value in data set [3] (listed as β-form crystal) was “relatively low hygroscopicity”. In addition, the “moisture held (hygroscopic)” value in data set [3] (reported in CA 2 464 068 C) was “up to 3%”.
